Reference: patent US20170081338A1, “SUBSTITUTED HETEROARYL COMPOUNDS AND METHODS OF USE” (Sunshine Lake Pharma Co., Ltd., priority 2015, published 2017)

How the values were obtained:
Type in all cases: biochemical
Aurora-A (h) = target: T1, Aurora-A (h) (Homo sapiens, UniProt O14965); assay: Aurora-A (h) kinase assay
T1 construct: purchased Millipore UK Ltd (contract assay service)
T1 sequence (O14965 1-403): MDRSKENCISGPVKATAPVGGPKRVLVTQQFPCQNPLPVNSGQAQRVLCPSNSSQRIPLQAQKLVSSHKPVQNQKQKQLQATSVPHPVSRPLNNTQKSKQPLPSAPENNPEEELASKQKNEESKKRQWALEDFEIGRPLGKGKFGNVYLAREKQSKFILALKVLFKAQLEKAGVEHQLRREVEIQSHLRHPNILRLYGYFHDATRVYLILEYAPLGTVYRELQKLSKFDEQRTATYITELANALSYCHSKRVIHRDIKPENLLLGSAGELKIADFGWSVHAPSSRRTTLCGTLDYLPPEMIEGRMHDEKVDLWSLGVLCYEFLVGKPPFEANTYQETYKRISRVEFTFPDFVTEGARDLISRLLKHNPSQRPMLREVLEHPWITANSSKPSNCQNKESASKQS
How it was run: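 Human Aurora-A incubated with 200 μM Kemptide, 10 mM Mg acetate, [γ-33P]ATP in 8 mM MOPS pH 7.0 for 40 min at room temperature; stopped with phosphoric acid, spotted on P30 filtermat and scintillation counted. IC50 from 10-point ½-log dilution series.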

Aurora-B (h) = target: T2, Aurora-B (h) (Homo sapiens, UniProt Q96GD4); assay: Aurora-B (h) kinase assay
T2 construct: purchased Millipore UK Ltd (contract assay service)
Experimental: (§1) Kinase assays can be performed by measurement of incorporation of γ-^33P ATP into immobilized myelin basic protein (MBP). High binding white 384 well plates (Greiner) are coated with MBP (Sigma #M-1891) by incubation of 60 μL/well of 20 μg/mL MBP in Tris-buffered saline (TBS; 50 mM Tris pH 8.0, 138 mM NaCl, 2.7 mM KCl) for 24 h at 4° C. Plates are washed 3× with 100 μL TBS. Kinase reactions are carried out in a total volume of 34 μL in kinase buffer (according to the need to make, for example, 5 mM Hepes pH 7.6, 15 mM NaCl, 0.01% bovine gamma globulin (Sigma #1-5506), 10 mM MgCl2, 1 mM DTT, 0.02% TritonX-100). Compound dilutions are performed in DMSO and added to assay wells to a final DMSO concentration of 1%. Each data point is measured in duplicate, and at least two duplicate assays are performed for each individual compound determination. Enzyme is added to final concentrations of 10 nM or 20 nM, for example. A mixture of unlabeled ATP and γ-^33P ATP is added to start the reaction (2×10^6 cpm of γ-^33P ATP per well (3000 Ci/mmole) and 10 μM unlabeled ATP, typically. The reactions are carried out for 1 h at room temperature with shaking. Plates are washed 7× with TBS, followed by the addition of 50 µL/well scintillation fluid (Wallac). Plates are read using a Wallac Trilux counter. This is only one format of such assays; various other formats are possible, as known to one skilled in the art.
(§2) The above assay procedure can be used to determine the IC50 for inhibition and/or the inhibition constant, Ki. The IC50 is defined as the concentration of compound required to reduce the enzyme activity by 50% under the condition of the assay. The IC50 value is estimated by preparing a 10 point curve using a 1/2 log dilution series (for example, a typical curve may be prepared using the following compound concentrations: 3 μM, 1 μM, 0.3 μM, 0.1 μM, 0.03 μM, 0.01 μM, 0.003 μM, 0.001 μM, 0.0003 μM and 0 μM).
Aurora-B (h) is incubated with 8 mM MOPS pH 7.0, 0.2 mM EDTA, 30 μM AKRRRLSSLRA, 10 mM MgAcetate and [γ-^33PATP] (specific activity approx. 500 cpm/pmol, concentration as required). The reaction is initiated by the addition of the MgATP mix. After incubation for 40 minutes at room temperature, the reaction is stopped by the addition of a 3% phosphoric acid solution. 10 μL of the reaction is then spotted onto a P30 filtermat and washed three times for 5 minutes in 75 mM phosphoric acid and once in methanol prior to drying and scintillation counting.
(§3) The kinase assays described herein were performed at Millipore UK Ltd, Dundee Technology Park, Dundee DD2 1SW, UK.

JAK1 (h) = target: T3, JAK1 (h) (Homo sapiens, UniProt P23458); assay: JAK1 (h) kinase assay
T3 construct: purchased Millipore UK Ltd (contract assay service)
Experimental: as §1, §2
JAK1 (h) is incubated with 20 mM Tris/HCl pH 7.5, 0.2 mM EDTA, 500 μM GEEPLYWSFPAKKK, 10 mM MgAcetate and [γ-^33P-ATP] (specific activity approx. 500 cpm/pmol, concentration as required). The reaction is initiated by the addition of the MgATP mix. After incubation for 40 minutes at room temperature, the reaction is stopped by the addition of 3% phosphoric acid solution. 10 μL of the reaction is then spotted onto a P30 filtermat and washed three times for 5 minutes in 75 mM phosphoric acid and once in methanol prior to drying and scintillation counting.
as §3

T2 sequence (Q96GD4 whole entry): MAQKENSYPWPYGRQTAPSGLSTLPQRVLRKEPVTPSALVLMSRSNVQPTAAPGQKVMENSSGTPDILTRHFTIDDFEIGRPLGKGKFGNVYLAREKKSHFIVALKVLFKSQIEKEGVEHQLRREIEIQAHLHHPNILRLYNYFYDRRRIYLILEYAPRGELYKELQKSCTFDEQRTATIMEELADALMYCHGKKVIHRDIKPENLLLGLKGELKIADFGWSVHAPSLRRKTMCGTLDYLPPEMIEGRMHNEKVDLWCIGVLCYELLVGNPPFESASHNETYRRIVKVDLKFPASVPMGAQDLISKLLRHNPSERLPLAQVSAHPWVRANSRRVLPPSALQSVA
T3 sequence (P23458 whole entry): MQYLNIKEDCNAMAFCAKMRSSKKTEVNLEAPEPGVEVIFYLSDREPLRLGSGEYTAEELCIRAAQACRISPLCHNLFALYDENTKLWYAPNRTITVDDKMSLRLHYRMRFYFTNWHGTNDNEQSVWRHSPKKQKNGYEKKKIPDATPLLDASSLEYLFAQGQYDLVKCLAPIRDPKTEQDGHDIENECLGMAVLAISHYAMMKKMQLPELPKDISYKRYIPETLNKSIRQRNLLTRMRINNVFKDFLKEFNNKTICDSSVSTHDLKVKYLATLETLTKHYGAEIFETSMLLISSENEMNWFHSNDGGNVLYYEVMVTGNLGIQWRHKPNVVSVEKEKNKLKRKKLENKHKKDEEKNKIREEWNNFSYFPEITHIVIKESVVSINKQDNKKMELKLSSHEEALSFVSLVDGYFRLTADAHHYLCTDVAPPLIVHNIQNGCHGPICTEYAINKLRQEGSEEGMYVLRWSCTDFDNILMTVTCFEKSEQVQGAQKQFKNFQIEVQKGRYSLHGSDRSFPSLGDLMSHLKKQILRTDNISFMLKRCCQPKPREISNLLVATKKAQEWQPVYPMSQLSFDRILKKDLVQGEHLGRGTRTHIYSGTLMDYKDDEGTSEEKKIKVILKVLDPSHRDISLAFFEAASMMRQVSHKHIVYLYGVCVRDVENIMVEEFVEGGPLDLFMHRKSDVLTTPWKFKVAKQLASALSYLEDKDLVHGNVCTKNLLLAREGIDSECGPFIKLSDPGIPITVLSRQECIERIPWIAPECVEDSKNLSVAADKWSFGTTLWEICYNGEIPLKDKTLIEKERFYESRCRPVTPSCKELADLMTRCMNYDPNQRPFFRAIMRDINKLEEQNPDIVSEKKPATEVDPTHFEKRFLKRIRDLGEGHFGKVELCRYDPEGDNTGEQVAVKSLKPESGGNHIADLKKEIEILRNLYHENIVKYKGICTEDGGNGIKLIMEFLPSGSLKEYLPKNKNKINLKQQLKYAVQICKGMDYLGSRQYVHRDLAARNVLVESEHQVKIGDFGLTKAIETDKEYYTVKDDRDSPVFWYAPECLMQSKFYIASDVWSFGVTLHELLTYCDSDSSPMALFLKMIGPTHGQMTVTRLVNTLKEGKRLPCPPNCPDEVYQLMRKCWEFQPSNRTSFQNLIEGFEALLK

Row | IC50 (Aurora-A (h)) [nM] | IC50 (Aurora-B (h)) [nM] | IC50 (JAK1 (h)) [nM] | Compound
1 | 20 | 29 | 43 | CC(C)CS(=O)(=O)N[C@H]1COC2C1OC[C@H]2Nc1nc(Nc2cnn(C)c2)ncc1Cl (stereo partly drawn) [Ex. 2, N-((3S,6R)-6-((5-chloro-2-((1-methyl-1H-pyrazol-4-yl)amino)pyrimidin-4-yl)amino)hexahydrofuro[3,2-b]furan-3-yl)-2-methylpropane-1-sulfonamide]
2 | 5 | 24 | 27 | Cn1cc(Nc2ncc(Cl)c(N[C@@H]3COC4C3OC[C@@H]4NS(=O)(=O)CC3CC3)n2)cn1 (stereo partly drawn) [Ex. 25, N-((3S,6R)-6-((5-chloro-2-((1-methyl-1H-pyrazol-4-yl)amino)pyrimidin-4-yl)amino)hexahydrofuro[3,2-b]furan-3-yl)-1-cyclopropylmethanesulfonamide]
3 | 6 | 11 | 94 | Cn1cc(Nc2ncc(Cl)c(N[C@@H]3COC4C3OC[C@@H]4NS(=O)(=O)CC(C)(C)C#N)n2)cn1 (stereo partly drawn) [Ex. 26, N-((3S,6R)-6-((5-chloro-2-((1-methyl-1H-pyrazol-4-yl)amino)pyrimidin-4-yl)amino)hexahydrofuro[3,2-b]furan-3-yl)-2-cyano-2-methylpropane-1-sulfonamide]
4 | 39 | 8 | 7 | Cn1cc(Nc2ncc(Cl)c(N[C@@H]3COC4C3OC[C@@H]4NS(=O)(=O)CC(F)(F)F)n2)cn1 (stereo partly drawn) [Ex. 27, N-((3S,6R)-6-((5-chloro-2-((1-methyl-1H-pyrazol-4-yl)amino)pyrimidin-4-yl)amino)hexahydrofuro[3,2-b]furan-3-yl)-2,2,2-trifluoroethanesulfonamide]
